Columns and labels:
[1] = test system: HepG2; assay: MTS cytotoxicity assay, HepG2 cells; assay type: cell-based; settings: HepG2, 72 h
Description: (§1) For CellTiter 96® Aqueous One Solution Cell Proliferation Assay (MTS) (Promega, Madison, WI, USA), cells were seeded at 5 × 10^3 per well in 96-well plates in quadruplicate together a control with no cells to evaluate the background. After 24 h, the culture medium was removed, and fresh medium containing increasing concentrations of chemical compounds was added to cells. The fixed final concentrations were 0.1 μM, 1 μM, 10 μM, and 100 μM. DMSO was the vehicle used for dilution of the compounds, and its final concentration on cells was less than 0.2%. Medium-only containing wells were included as controls. […] After 3 h at 37 °C in a humidified, 5% CO2 atmosphere, the absorbance at 492 nm was recorded using an EZREAD400 (Biochrom, Cambridge, United Kingdom) plate reader. The average 490 nm absorbance from the “no cell” control wells was subtracted from all other values to yield background-corrected absorbance. Dose–response curves and CC50 values have been calculated by plotting the absorbance data as a function of inhibitor concentrations and fitting the data by least-squares nonlinear regression, according to the method of Marquardt–Levenberg, with the computer program GraphPad Prism 6.0.
(§2) Cells were incubated with a scalar concentration of DDX3X inhibitors, and after 72 h of treatment, cell viability was assessed by cytotoxicity assay. […]

[2] = test system: A549, MDA-MB-231, HCT-116, U2OS, RD18, DBTRG, U87, U251 and DAOY cancer cell lines; assay: Cytotoxicity on additional cancer cell lines; assay type: cell-based; settings: 72 h
Description: as §1, §2

[3] = test system: U87 cells intracerebral xenograft; assay: Orthotopic U87 xenograft model of GBM; assay type: in vivo, CD1 nude mice; settings: 50 mg/kg i.p., three times per week for three weeks, observed two months
Description: In CD1 nude mice, 3 × 10^3 U87 cells were injecting intracerebrally using a stereotactic frame (Stoelting Europe, Dublin, Ireland). Optimization of the protocol for treatment procedures was based on previously published data performed in the same experimental in vivo model. A volume of 3 μL was inoculated by a sterile Hamilton syringe with a 26-gauge needle inserted at a depth of 3.0 mm from the skull surface. Five days after injection, animals were randomized to control and treated groups. […] For in vivo administration, BA103 was administered i.p. in a saline solution containing 10% v/v DMSO and 10% v/v TWEEN 80. Each mouse received 50 mg/kg BA103, or vehicle, three times per week.
Figure 9 Biological activity of BA103 in xenograft models of GBM. (A–D) Mice were inoculated s.c. with U87 cells, randomly distributed in two groups (CTR and BA103), and treated according to the protocol shown in panel (A). Tumor growth was monitored by measuring tumor volume (B), and at the end point, tumors were weighed, and the resulting mean values for each group are reported in the histogram (C). Recovered tumor masses were processed for analysis of DDX3X expression by immunohistochemistry, and representative images acquired at 400× magnification are shown in panel (D). (E) Survival curve from in vivo orthotopic model of GBM. […] Mice were monitored for two months after U87 cells inoculation. […]

[4] = test system: panel of cancer cell lines (Du-145, PC3, HepG2, Huh-7, HN6, U87 and U231); assay: Cytotoxicity screen on panel of cancer cell lines; assay type: cell-based; settings: 72 h of treatment
Description: as §1, §2

| Structure (SMILES) | CC50 [1] | CC50s against the additional cell lines [2] | mice alive at the endpoint [3] | growth inhibition in all the cell lines tested [4] |
| --- | --- | --- | --- | --- |
| CCCCc1cn(-c2ccc(NC(=O)Nc3ccccc3C(F)(F)F)cc2)nn1 [BA103, 1-(4-(4-Butyl-1H-1,2,3-triazol-1-yl)phenyl)-3-(2-(trifluoromethyl)phenyl)urea] | low micromolar range | micromolar CC50s | seven out of eight | – |
| CCCCc1nnc(-c2ccc(NC(=O)Nc3ccccc3C(F)(F)F)cc2)[nH]1 [Compound 4, 1-(4-(5-Butyl-4H-1,2,4-triazol-3-yl)phenyl)-3-(2-(trifluoromethyl)phenyl)urea] | – | – | – | showed inhibition growth capability in all the cell lines tested |

Source: paper PMC8582824, “Targeting DDX3X Helicase Activity with BA103 Shows Promising Therapeutic Effects in Preclinical Glioblastoma Models” (Cancers, 2021)
